Test results as given in US7446091B2, “Methods and preparations for curing clinically ill patients” (Novo Nordisk A/S, priority 2000, dated 2008).

System: mechanically ventilated, adult patients admitted to the intensive care unit (ICU)
Assay: Example 2: prospective, randomized, controlled study, morbidity analysis
Assay type: in vivo, human
Details: for Patients with critical illness polyneuropathy - total no.: EMG-screened patients; for Number of transfusions per patient (median): admission day not taken into account
Description: All mechanically ventilated, adult patients admitted to the intensive care unit (ICU) were eligible for inclusion.
At baseline, demographic, diagnostic and therapeutic information as well as information necessary to determine severity of illness and utilization of ICU resources were obtained from each patient (Table 1). These included APACHE-II (Acute Physiology and Chronic Health Evaluation) score with higher values indicating more severe illness (see Knaus) and simplified Therapeutic Intervention Scoring System (TISS-28) with higher values indicating a higher number of therapeutic interventions (see Reis Miranda & Keene). APACHE II and TISS scores were calculated daily from ICU admission to discharge or death.
A blood sample was taken upon ICU admission and daily at 06:00 h until discharge from ICU or death. On-admission and daily morning, whole blood glucose level as well as daily maximal and minimal glycemia were analysed. Analyses on the 06:00 h sample also included clinical chemistry, hematology and markers of inflammation.
Blood cultures were taken whenever continously monitored central body temperature acutely rose above 38.5° C. Results from all blood cultures were interpreted by the same blinded investigator. An episode of bacteremia, fungemia or mycobacteremia was defined by the first positive blood culture in a series. To identify a blood stream infection with coagulase-negative staphylocci, identical strains (compared by antibiogram) of microorganisms in two or more positive blood cultures were required (see Weinstein 1997 and Weinstein 1998).
In patients treated in ICU for more than one week, a weekly electromyography (EMG) was performed to screen for Critical Illness Polyneuropathy. EMGs were interpreted by the same electrophysiologist who was blinded for randomization. In case of ICU death, a post-mortem examination was performed to confirm the presumed cause of death.
The primary outcome measure was death from all causes during intensive care. Secondary outcome measures were in-hospital mortality, incidence of prolonged intensive care dependency and need for ICU re-admission, need for vital organ system support comprising mechanical ventilatory support, renal replacement therapy (continuous or intermittent hemofiltration or dialysis), inotropic or vasopressor support, incidence of critical illness polyneuropathy, the degree of inflammation, incidence of blood stream infections and use of antibiotics, transfusion requirements and incidence of hyperbilirubinemia. Furthermore, use of intensive care resources was analysed by cumulative TISS scores. In order to accurately and objectively assess duration of ICU stay, which is often influenced by non-patient related factors such as bed availability on regular wards, patients were defined ‘dischargable from ICU’ when they were no longer in need of vital organ system support and received at least ⅔rd of the caloric need through the normal enteral route or earlier when actually sent to a ward.
Baseline and outcome variables were compared using Student's t-test, Chi-square test and Mann-Whitney-U test, as appropriate. Death odds ratios were calculated using multivariate logistic regression analysis. The effect on time of in-hospital death was assessed by Kaplan-Meier analysis and logrank (Mantel-Cox) significance testing. Patients discharged from the hospital were considered as survivors. Data are presented as percentages, means ±SD or medians (25th-75th percentile) unless indicated otherwise.

[1] = IIS, ICU stay >5 days (N = 451)
[2] = IIS, ICU stay ≤5 days (N = 1097)
[3] = RIS, ICU stay >5 days (N = 451)
[4] = RIS, ICU stay ≤5 days (N = 1097)

insulin was tested, and the “Patients with hyperbilirubinemia, NNT” value (IIS vs RIS) was 20, the “Patients with hyperbilirubinemia, RRR (%)” value (IIS vs RIS) was 19% and the “Peak plasma creatinine >2.5 mg/dL, NNT” value (IIS vs RIS) was 31. The “Peak plasma creatinine >2.5 mg/dL, RRR (%)” value (IIS vs RIS) was 26%, the “Peak plasma urea concentration >150 mg/dL, NNT” value (IIS vs RIS) was 29 and the “Peak plasma urea concentration >150 mg/dL, RRR (%)” value (IIS vs RIS) was 31%. For the same substance, the “Repetitive (>2) positive EMGs, NNT” value (IIS vs RIS) was 8, the “Repetitive (>2) positive EMGs, RRR (%)” value (IIS vs RIS) was 63% and the “Patients with critical illness polyneuropathy, NNT” value (IIS vs RIS, among screened patients) was 4. For the same substance, the “Reduction in median cumulative TISS score” value (IIS vs RIS, long-stay patients) was 20%, the “Patients with critical illness polyneuropathy - total no.” value (IIS) was 47 and the “Cumulative TISS (median)” value [1] was 431. The “Days on ICU (median)” value [1] was 12 days, the “Days on mechanical ventilatory support (median)” value [1] was 10 days and the “Cumulative TISS (median)” value [2] was 85. The “Days on ICU (median)” value [2] was 2 days, the “Days on mechanical ventilatory support (median)” value [2] was 1 days and the “Number of transfusions per patient (median)” value (IIS) was 1. The “>3 days C-reactive protein level above 150 mg/L (%)” value (RIS) was “(21%)”, the “>3 days C-reactive protein level above 150 mg/L - total no.” value (RIS) was 162 and the “>3 days central body temperature ≤36° C. or […]38° C. (%)” value (RIS) was “(26%)”. The “>3 days central body temperature ≤36° C. or […]38° C. - total no.” value (RIS) was 206, the “>3 days white blood cell count ≤4000/μL or […]12000/μL (%)” value (RIS) was “(21%)” and the “>3 days white blood cell count ≤4000/μL or […]12000/μL - total no.” value (RIS) was 166. For the same substance, the “Lowest level of hemoglobin (g/dL) when transfused (median)” value (RIS) was 8.1 g/dL, the “Number of patients requiring red cell transfusion (%)” value (RIS) was “(31%)” and the “Number of patients requiring red cell transfusion - total no” value (RIS) was 243. For the same substance, the “Patients needing dialysis or CVVH (%)” value (RIS) was “(8.2%)”, the “Patients needing dialysis or CVVH - total no” value (RIS) was 64 and the “Patients on inotropic/vasopressor treatment (%)” value (RIS) was “(75%)”. The “Patients on inotropic/vasopressor treatment - total no.” value (RIS) was 586, the “Patients requiring >7 days intensive care (%)” value (RIS) was “(26.3%)” and the “Patients requiring >7 days intensive care - total no” value (RIS) was 206. The “Patients requiring >7 days ventilatory support (%)” value (RIS) was “(23.2%)”, the “Patients requiring >7 days ventilatory support - total no.” value (RIS) was 175 and the “Patients requiring >14 days intensive care (%)” value (RIS) was “(15.7%)”. The “Patients requiring >14 days intensive care - total no” value (RIS) was 123, the “Patients requiring >14 days ventilatory support (%)” value (RIS) was “(12.3%)” and the “Patients requiring >14 days ventilatory support - total no.” value (RIS) was 93. For the same substance, the “Patients requiring >21 days intensive care (%)” value (RIS) was “(9.5%)”, the “Patients requiring >21 days intensive care - total no” value (RIS) was 74 and the “Patients requiring >21 days ventilatory support (%)” value (RIS) was “(8.2%)”. For the same substance, the “Patients requiring >21 days ventilatory support - total no.” value (RIS) was 62, the “Patients treated with antibiotics for >10 days (%)” value (RIS) was “(17.1%)” and the “Patients treated with antibiotics for >10 days - total no.” value (RIS) was 134. For the same substance, the “Patients with an ICU stay of >5 days” value (RIS) was 31%, the “Patients with blood stream infections during intensive care - total no” value (RIS) was 61 and the “Patients with critical illness polyneuropathy (% of EMG-screened)” value (RIS) was “(52%)”. The “Patients with hyperbilirubinemia (peak bilirubin >2 mg/dL) (%)” value (RIS) was “(27%)”, the “Patients with hyperbilirubinemia (peak bilirubin >2 mg/dL) - total no.” value (RIS) was 209 and the “Peak plasma creatinine >2.5 mg/dL (%)” value (RIS) was “(12.2%)”. For the same substance, the “Peak plasma creatinine >2.5 mg/dL - total no.” value (RIS) was 96, the “Peak plasma urea concentration >150 mg/dL (%)” value (RIS) was “(11.2%)” and the “Peak plasma urea concentration >150 mg/dL - total no.” value (RIS) was 88. For the same substance, the “Repetitive (>2) positive EMGs (% of EMG screened)” value (RIS) was “(19%)”, the “Repetitive (>2) positive EMGs - total no” value (RIS) was 39 and the “Patients with critical illness polyneuropathy - total no.” value (RIS) was 110. The “Cumulative TISS (median)” value [3] was 536, the “Days on ICU (median)” value [3] was 15 days and the “Days on mechanical ventilatory support (median)” value [3] was 12 days. For the same substance, the “Cumulative TISS (median)” value [4] was 84, the “Days on ICU (median)” value [4] was 2 days and the “Days on mechanical ventilatory support (median)” value [4] was 1 days. The “Number of transfusions per patient (median)” value (RIS) was 2, the “TISS score on the last day of study (median, IQR)” value (both study groups (IIS and RIS)) was 30 (26-38) and the ICU re-admission rate (similar in both groups (IIS and RIS)) was 2.1%.
